Experimental data from patent US10131702B2, “Glucagon-GLP-1-GIP triple agonist compounds” (priority 2013, dated 2018).
Like-named read-outs stand apart in the source and are kept apart here. Numbered stars: 1 amine (or outer) side, 2 acyl side, 3 side chain; on linkers, the order of the positions; unused ones are H or OH. Square brackets hold non-standard residues; d marks the D form. Side chains are listed from the residue outwards. Peptide text beside a SMILES is read from it. * marks the point of attachment. C18 diacid = O=C(O)CCCCCCCCCCCCCCCCC(=O)*; γGlu = O=C(O)[C@H](CCC(=O)[*:2])N[*:1]; AEEA = NCCOCCOCC(=O)O; Aib = CC(C)(N)C(=O)O

How the values were obtained:
Type in all cases: cell-based
human GIP R = biological target: T1, human GIP R (Homo sapiens, UniProt P48546); test: cAMP induction in HEK293 cells expressing human GIP R (AlphaScreen cAMP kit)
T1 construct: expressed in transfected cells
T1 sequence (P48546 22-466): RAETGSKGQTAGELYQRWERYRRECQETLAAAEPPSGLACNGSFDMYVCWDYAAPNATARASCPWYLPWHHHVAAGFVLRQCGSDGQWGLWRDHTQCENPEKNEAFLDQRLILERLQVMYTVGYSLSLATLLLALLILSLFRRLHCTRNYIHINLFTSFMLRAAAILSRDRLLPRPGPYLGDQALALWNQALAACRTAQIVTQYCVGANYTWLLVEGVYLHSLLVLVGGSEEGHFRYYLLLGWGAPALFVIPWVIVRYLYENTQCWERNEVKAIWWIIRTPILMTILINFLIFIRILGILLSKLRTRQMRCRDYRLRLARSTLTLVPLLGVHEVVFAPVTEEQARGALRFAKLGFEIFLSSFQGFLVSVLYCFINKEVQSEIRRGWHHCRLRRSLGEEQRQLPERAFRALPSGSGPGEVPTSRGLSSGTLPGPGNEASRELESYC

human GLP-1 R = biological target: T2, human GLP-1 R (Homo sapiens, UniProt P43220); test: cAMP induction in HEK293 cells expressing human GLP-1 R (AlphaScreen cAMP kit); conditions: average EC50, cAMP, HEK293 cells expressing human GLP-1 R, read-out: GLP1 R (EC50 in nM)
T2 construct: expressed in transfected cells

human GCG R = biological target: T3, human GCG R (Homo sapiens, UniProt P47871); test: cAMP induction in HEK293 cells expressing human GCG R (AlphaScreen cAMP kit)
T3 construct: expressed in transfected cells

[1] = GIP R (EC50 in nM), Table 2, average EC50, cAMP
[2] = GIP R (EC50 in nM), Table 2b (most comprehensive data), average EC50, cAMP
[3] = Table 2b (most comprehensive data)

T2 sequence (P43220 24-463): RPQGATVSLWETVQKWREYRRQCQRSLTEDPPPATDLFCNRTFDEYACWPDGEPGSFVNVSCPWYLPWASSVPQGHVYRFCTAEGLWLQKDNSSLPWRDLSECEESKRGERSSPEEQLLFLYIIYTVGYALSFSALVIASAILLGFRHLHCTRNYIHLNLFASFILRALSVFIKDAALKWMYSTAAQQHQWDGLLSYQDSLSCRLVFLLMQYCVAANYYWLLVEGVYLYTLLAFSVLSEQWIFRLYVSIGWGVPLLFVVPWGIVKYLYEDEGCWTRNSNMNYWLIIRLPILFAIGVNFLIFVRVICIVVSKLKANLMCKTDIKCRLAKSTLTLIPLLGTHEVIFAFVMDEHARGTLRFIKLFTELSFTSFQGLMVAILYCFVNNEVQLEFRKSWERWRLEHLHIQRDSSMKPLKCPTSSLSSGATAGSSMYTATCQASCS
T3 sequence (P47871 26-477): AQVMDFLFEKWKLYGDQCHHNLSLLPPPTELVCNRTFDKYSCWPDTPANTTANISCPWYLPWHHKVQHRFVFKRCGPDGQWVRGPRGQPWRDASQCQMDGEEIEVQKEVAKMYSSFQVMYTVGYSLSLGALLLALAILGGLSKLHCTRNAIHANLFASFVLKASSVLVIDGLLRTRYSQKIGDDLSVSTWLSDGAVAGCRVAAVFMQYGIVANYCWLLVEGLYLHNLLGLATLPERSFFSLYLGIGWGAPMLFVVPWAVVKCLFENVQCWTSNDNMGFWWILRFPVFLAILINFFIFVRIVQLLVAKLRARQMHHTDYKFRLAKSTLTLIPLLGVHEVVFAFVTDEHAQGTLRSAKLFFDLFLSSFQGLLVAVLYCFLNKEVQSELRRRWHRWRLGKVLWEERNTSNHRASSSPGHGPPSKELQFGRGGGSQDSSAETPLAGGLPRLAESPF

Structure (SMILES)	EC50 (human GIP R; [1]) [nM]	EC50 (human GIP R; [2]) [nM]	EC50 (human GLP-1 R; Table 2) [nM]	EC50 (human GLP-1 R; [3]) [nM]	EC50 (human GCG R) [nM]	EC50 (human GIP R; Table 2b (most comprehensive data), average EC50, cAMP, read-out: GIP R (EC50 in nM)) [nM]	EC50 (human GCG R; Table 2b (most comprehensive data), average EC50, cAMP, HEK293 cells expressing human GCG R, read-out: GCG R (EC50 in nM)) [nM]
CC[C@H](C)[C@H](NC(=O)[C@H](CO)NC(=O)[C@H](Cc1ccc(O)cc1)NC(=O)[C@H](CC(=O)O)NC(=O)[C@H](CO)NC(=O)[C@@H](NC(=O)[C@H](Cc1ccccc1)NC(=O)[C@@H](NC(=O)CNC(=O)[C@H](CCC(N)=O)NC(=O)C(C)(C)NC(=O)[C@@H](N)Cc1ccc(O)cc1)[C@@H](C)O)[C@@H](C)O)C(=O)N[C@@H](Cc1ccc(O)cc1)C(=O)N[C@@H](CC(C)C)C(=O)N[C@@H](CC(=O)O)C(=O)N[C@@H](CO)C(=O)N[C@@H](CCCCN)C(=O)N[C@@H](C)C(=O)N[C@@H](C)C(=O)N[C@@H](CCCCN)C(=O)N[C@@H](CC(=O)O)C(=O)N[C@@H](Cc1ccccc1)C(=O)N[C@H](C(=O)N[C@@H](CCC(=O)O)C(=O)N[C@@H](Cc1c[nH]c2ccccc12)C(=O)N[C@@H](CC(C)C)C(=O)N[C@@H](CC(C)C)C(=O)N[C@@H](CO)C(=O)N[C@@H](C)C(N)=O)C(C)C [Compound 10] (HELM PEPTIDE1{Y.[Aib].Q.G.T.F.T.S.D.Y.S.I.Y.L.D.S.K.A.A.K.D.F.V.E.W.L.L.S.A.[am]}$$$$V2.0)	0.24	0.012	0.012	0.1	0.1	–	–
CC[C@H](C)[C@H](NC(=O)[C@H](CO)NC(=O)[C@H](Cc1ccc(O)cc1)NC(=O)[C@H](CC(=O)O)NC(=O)[C@H](CO)NC(=O)[C@@H](NC(=O)[C@H](Cc1ccccc1)NC(=O)[C@@H](NC(=O)CNC(=O)[C@H](CCC(N)=O)NC(=O)C(C)(C)NC(=O)[C@@H](N)Cc1ccc(O)cc1)[C@@H](C)O)[C@@H](C)O)C(=O)N[C@@H](Cc1ccc(O)cc1)C(=O)N[C@@H](CC(C)C)C(=O)N[C@@H](CCC(=O)O)C(=O)N[C@@H](CCCCN)C(=O)N[C@@H](CCCCN)C(=O)N[C@@H](C)C(=O)N[C@@H](C)C(=O)N[C@@H](CCCCN)C(=O)N[C@@H](CCC(=O)O)C(=O)N[C@@H](Cc1ccccc1)C(=O)N[C@H](C(=O)N[C@@H](CCC(=O)O)C(=O)N[C@@H](Cc1c[nH]c2ccccc12)C(=O)N[C@@H](CC(C)C)C(=O)N[C@@H](CC(C)C)C(=O)N[C@@H](CO)C(=O)N[C@@H](C)C(N)=O)C(C)C [Compound 20] (HELM PEPTIDE1{Y.[Aib].Q.G.T.F.T.S.D.Y.S.I.Y.L.E.K.K.A.A.K.E.F.V.E.W.L.L.S.A.[am]}$$$$V2.0)	0.047	0.009	0.0094	–	0.057	–	–
CC(C)C[C@H](NC(=O)[C@H](CC(C)C)NC(=O)[C@H](Cc1c[nH]c2ccccc12)NC(=O)[C@H](CCC(=O)O)NC(=O)[C@@H](NC(=O)[C@H](Cc1ccccc1)NC(=O)[C@H](CC(=O)O)NC(=O)[C@H](Cc1c[nH]cn1)NC(=O)[C@H](C)NC(=O)[C@H](C)NC(=O)[C@H](CCCCN)NC(=O)[C@H](CO)NC(=O)[C@H](CC(=O)O)NC(=O)[C@H](CC(C)C)NC(=O)[C@H](Cc1ccc(O)cc1)NC(=O)[C@H](CCCCN)NC(=O)[C@H](CO)NC(=O)[C@H](Cc1ccc(O)cc1)NC(=O)[C@H](CC(=O)O)NC(=O)[C@H](CO)NC(=O)[C@@H](NC(=O)[C@H](Cc1ccccc1)NC(=O)[C@@H](NC(=O)CNC(=O)[C@H](CCC(N)=O)NC(=O)[C@H](CO)NC(=O)[C@@H](N)Cc1ccc(O)cc1)[C@@H](C)O)[C@@H](C)O)C(C)C)C(=O)N[C@@H](CCCNC(=N)N)C(=O)N[C@@H](C)C(N)=O [Compound 1] (H-YSQGTFTSDYSKYLDSKAAHDFVEWLLRA-NH2)	0.38	0.033	0.033	0.013	0.013	–	–
CC[C@H](C)[C@H](NC(=O)[C@H](CO)NC(=O)[C@H](Cc1ccc(O)cc1)NC(=O)[C@H](CC(=O)O)NC(=O)[C@H](CO)NC(=O)[C@@H](NC(=O)[C@H](Cc1ccccc1)NC(=O)[C@@H](NC(=O)CNC(=O)[C@H](CCC(N)=O)NC(=O)C(C)(C)NC(=O)[C@@H](N)Cc1ccc(O)cc1)[C@@H](C)O)[C@@H](C)O)C(=O)N[C@@H](Cc1ccc(O)cc1)C(=O)N[C@@H](CC(C)C)C(=O)N[C@@H](CC(=O)O)C(=O)N[C@@H](CCCCN)C(=O)N[C@@H](CCCCN)C(=O)N[C@@H](C)C(=O)N[C@@H](C)C(=O)N[C@@H](Cc1c[nH]cn1)C(=O)N[C@@H](CC(=O)O)C(=O)N[C@@H](Cc1ccccc1)C(=O)N[C@H](C(=O)N[C@@H](CCC(=O)O)C(=O)N[C@@H](Cc1c[nH]c2ccccc12)C(=O)N[C@@H](CC(C)C)C(=O)N[C@@H](CC(C)C)C(=O)N[C@@H](CO)C(=O)N[C@@H](C)C(N)=O)C(C)C [Compound 19] (HELM PEPTIDE1{Y.[Aib].Q.G.T.F.T.S.D.Y.S.I.Y.L.D.K.K.A.A.H.D.F.V.E.W.L.L.S.A.[am]}$$$$V2.0)	0.032	0.013	0.013	0.024	0.024	–	–
CC[C@H](C)[C@H](NC(=O)[C@H](CO)NC(=O)[C@H](Cc1ccc(O)cc1)NC(=O)[C@H](CC(=O)O)NC(=O)[C@H](CO)NC(=O)[C@@H](NC(=O)[C@H](Cc1ccccc1)NC(=O)[C@@H](NC(=O)CNC(=O)[C@H](CCC(N)=O)NC(=O)C(C)(C)NC(=O)[C@@H](N)Cc1ccc(O)cc1)[C@@H](C)O)[C@@H](C)O)C(=O)N[C@@H](Cc1ccc(O)cc1)C(=O)N[C@@H](CC(C)C)C(=O)N[C@@H](CC(=O)O)C(=O)N[C@@H](CO)C(=O)N[C@@H](CCCCN)C(=O)N[C@@H](C)C(=O)N[C@@H](C)C(=O)N[C@@H](Cc1c[nH]cn1)C(=O)N[C@@H](CC(=O)O)C(=O)N[C@@H](Cc1ccccc1)C(=O)N[C@H](C(=O)N[C@@H](CCC(=O)O)C(=O)N[C@@H](Cc1c[nH]c2ccccc12)C(=O)N[C@@H](CC(C)C)C(=O)N[C@@H](CC(C)C)C(=O)N[C@@H](CCCNC(=N)N)C(=O)N[C@@H](C)C(N)=O)C(C)C [Compound 12] (HELM PEPTIDE1{Y.[Aib].Q.G.T.F.T.S.D.Y.S.I.Y.L.D.S.K.A.A.H.D.F.V.E.W.L.L.R.A.[am]}$$$$V2.0)	0.084	0.012	0.012	–	0.076	–	–
CC[C@H](C)[C@H](NC(=O)[C@H](CO)NC(=O)[C@H](Cc1ccc(O)cc1)NC(=O)[C@H](CC(=O)O)NC(=O)[C@H](CO)NC(=O)[C@@H](NC(=O)[C@H](Cc1ccccc1)NC(=O)[C@@H](NC(=O)CNC(=O)[C@H](CCC(N)=O)NC(=O)C(C)(C)NC(=O)[C@@H](N)Cc1ccc(O)cc1)[C@@H](C)O)[C@@H](C)O)C(=O)N[C@@H](Cc1ccc(O)cc1)C(=O)N[C@@H](CC(C)C)C(=O)N[C@@H](CC(=O)O)C(=O)N[C@@H](CCCCN)C(=O)N[C@@H](CCCCNC(=O)COCCOCCNC(=O)COCCOCCNC(=O)CC[C@H](NC(=O)CCCCCCCCCCCCCCCCC(=O)O)C(=O)O)C(=O)N[C@@H](C)C(=O)N[C@@H](CCC(N)=O)C(=O)N[C@@H](CCCNC(=N)N)C(=O)N[C@@H](C)C(=O)N[C@@H](Cc1ccccc1)C(=O)N[C@H](C(=O)N[C@@H](CCC(=O)O)C(=O)N[C@@H](Cc1c[nH]c2ccccc12)C(=O)N[C@@H](CC(C)C)C(=O)N[C@@H](CC(C)C)C(=O)N[C@@H](C)C(=O)N[C@@H](CCC(N)=O)C(=O)NCC(=O)N1CCC[C@H]1C(=O)N[C@@H](CO)C(=O)N[C@@H](CO)C(=O)NCC(=O)N[C@@H](C)C(=O)N1CCC[C@H]1C(=O)N1CCC[C@H]1C(=O)N1CCC[C@H]1C(=O)N[C@@H](CO)C(N)=O)C(C)C [Compound 33] (H-Y[Aib]QGTFTSDYSIYLDKK([AEEA-AEEA-γGlu-C18 diacid])AQRAFVEWLLAQGPSSGAPPPS-NH2)	–	–	–	0.114	–	0.009	0.58
CC(C)C[C@H](NC(=O)[C@H](CC(C)C)NC(=O)[C@H](Cc1c[nH]c2ccccc12)NC(=O)[C@H](CCC(=O)O)NC(=O)[C@@H](NC(=O)[C@H](Cc1ccccc1)NC(=O)[C@H](CC(=O)O)NC(=O)[C@H](Cc1c[nH]cn1)NC(=O)[C@H](C)NC(=O)[C@H](C)NC(=O)[C@H](CCCCN)NC(=O)[C@H](CO)NC(=O)[C@H](CCC(=O)O)NC(=O)[C@H](CC(C)C)NC(=O)[C@H](Cc1ccc(O)cc1)NC(=O)[C@H](CCCCN)NC(=O)[C@H](CO)NC(=O)[C@H](Cc1ccc(O)cc1)NC(=O)[C@H](CC(=O)O)NC(=O)[C@H](CO)NC(=O)[C@@H](NC(=O)[C@H](Cc1ccccc1)NC(=O)[C@@H](NC(=O)CNC(=O)[C@H](CCC(N)=O)NC(=O)C(C)(C)NC(=O)[C@@H](N)Cc1ccc(O)cc1)[C@@H](C)O)[C@@H](C)O)C(C)C)C(=O)N[C@@H](CO)C(=O)N[C@@H](C)C(N)=O [Compound 8] (HELM PEPTIDE1{Y.[Aib].Q.G.T.F.T.S.D.Y.S.K.Y.L.E.S.K.A.A.H.D.F.V.E.W.L.L.S.A.[am]}$$$$V2.0)	0.2	0.015	0.015	–	0.042	–	–
